Experimental data taken from PubChem BioAssay AID330 (DTP/NCI, 2004).
Several values for one entry are separate records, joined by “and”; a condition that tells them apart may be missing. Identical values can stand only once. Inconclusive results and toxic doses are left out.

System: P388 leukemia ip, CD2F1 mice, survival T/C
Test: NCI In Vivo Anticancer Drug Screen. Data for tumor model P388 Leukemia (intraperitoneal) in CD2F1 (CDF1) mice
Conditions: endpoint: median survival time, higher = longer survival
In short: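 Mice carrying the transplanted tumor received test compound or vehicle. Survival was recorded in each group, and the value is the treated-group measurement divided by that of the vehicle-treated control group.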

[1] = dose: 50.0 mg/kg/injection, schedule: Q01DX009 (ip), vehicle: saline
[2] = dose: 12.5 mg/kg/injection, schedule: Q01DX009 (ip), vehicle: saline
[3] = dose: 25.0 mg/kg/injection, schedule: Q01DX009 (ip), vehicle: saline
[4] = dose: 50.0 mg/kg/injection, schedule: Q01DX009 (ip), vehicle: saline with Tween-80
[5] = dose: 100.0 mg/kg/injection, schedule: Q01DX009 (ip), vehicle: saline with Tween-80

In the case of `Cc1oc2c(C)c3oc(=O)cc(C)c3cc2c1CN`, the T/C (dose: 12.5 mg/kg/injection, schedule: Q01DX001 (ip), vehicle: Klucel (hydroxypropylcellulose) (HPC)) is reported as 111 % of control and the T/C (dose: 25.0 mg/kg/injection, schedule: Q01DX001 (ip), vehicle: Klucel (hydroxypropylcellulose) (HPC)) is reported as 96 % of control.
For `C1CCC2OCCOCCOCCOCCOC2C1` (stereo not given), the T/C (dose: 50.0 mg/kg/injection, schedule: Q01DX005 (ip), vehicle: saline) was 95 % of control and the T/C (dose: 100.0 mg/kg/injection, schedule: Q01DX005 (ip), vehicle: saline) was 95 % of control.
For `Cc1ccn2cc(CC(=O)O)nc2n1`, the T/C (dose: 100.0 mg/kg/injection, schedule: Q04DX003 (ip), vehicle: saline) was 101 % of control, the T/C (dose: 200.0 mg/kg/injection, schedule: Q04DX003 (ip), vehicle: saline) was 106 % of control and the T/C (dose: 400.0 mg/kg/injection, schedule: Q04DX003 (ip), vehicle: saline) was 105 % of control.
`COc1cc2c(cc1C[N+](C)(C)CSc1ccccc1)-c1ccccc1CC2` was tested, and the T/C (dose: 1.25 mg/kg/injection, schedule: Q01DX005 (ip), vehicle: DMSO) was 108 % of control, the T/C (dose: 2.5 mg/kg/injection, schedule: Q01DX005 (ip), vehicle: DMSO) was 101 % of control and the T/C (dose: 5.0 mg/kg/injection, schedule: Q01DX005 (ip), vehicle: DMSO) was 105 % of control.
`COc1ccc(Cc2cc(C(C)(C)C)c(O)c(C(C)(C)C)c2)cc1` was tested, and the T/C (dose: 50.0 mg/kg/injection, schedule: Q01DX005 (ip), vehicle: distilled water + alcohol) was 104 % of control, the T/C (dose: 100.0 mg/kg/injection, schedule: Q01DX005 (ip), vehicle: distilled water + alcohol) was 100 % of control and the T/C (dose: 200.0 mg/kg/injection, schedule: Q01DX005 (ip), vehicle: distilled water + alcohol) was 93 % of control.
With `CCCCCC(=O)SCC(=O)OCC(=O)[C@]1(O)Cc2c(O)c3c(c(O)c2[C@@H](OC2CC(N)C(O)C(C)O2)C1)C(=O)c1c(OC)cccc1C3=O` (stereo not given in full) the T/C (dose: 0.78 mg/kg/injection, schedule: Q01DX009 (ip), vehicle: water) was 169 % of control, the T/C (dose: 1.56 mg/kg/injection, schedule: Q01DX009 (ip), vehicle: water) was 174 % of control and 179 % of control and the T/C (dose: 3.13 mg/kg/injection, schedule: Q01DX009 (ip), vehicle: water) was 194 % of control and 209 % of control. The T/C (dose: 6.25 mg/kg/injection, schedule: Q01DX009 (ip), vehicle: water) was 104 % of control.
With `COc1cc2c(c(OC(C)=O)c1OC(C)=O)-c1ccc(SC)c(=O)cc1C(NC(C)=O)CC2` (stereo not given) the T/C (dose: 1.25 mg/kg/injection, schedule: Q01DX009 (ip), vehicle: Klucel (hydroxypropylcellulose) (HPC)) was 110 % of control, the T/C (dose: 2.5 mg/kg/injection, schedule: Q01DX009 (ip), vehicle: Klucel (hydroxypropylcellulose) (HPC)) was 105 % of control and the T/C (dose: 5.0 mg/kg/injection, schedule: Q01DX009 (ip), vehicle: Klucel (hydroxypropylcellulose) (HPC)) was 93 % of control. For the same compound, the T/C (dose: 9.0 mg/kg/injection, schedule: Q01DX009 (ip), vehicle: Klucel (hydroxypropylcellulose) (HPC)) was 100 % of control, the T/C (dose: 10.0 mg/kg/injection, schedule: Q01DX009 (ip), vehicle: Klucel (hydroxypropylcellulose) (HPC)) was 105 % of control and the T/C (dose: 18.0 mg/kg/injection, schedule: Q01DX009 (ip), vehicle: Klucel (hydroxypropylcellulose) (HPC)) was 89 % of control. The T/C (dose: 36.0 mg/kg/injection, schedule: Q01DX009 (ip), vehicle: Klucel (hydroxypropylcellulose) (HPC)) was 100 % of control.
In the case of `Nc1nnc(Cc2cccc3ccccc23)o1`, the T/C (dose: 60.0 mg/kg/injection, schedule: Q01DX005 (ip), vehicle: saline with Tween-80) is reported as 109 % of control, the T/C (dose: 120.0 mg/kg/injection, schedule: Q01DX005 (ip), vehicle: saline with Tween-80) is reported as 106 % of control and the T/C (dose: 240.0 mg/kg/injection, schedule: Q01DX005 (ip), vehicle: saline with Tween-80) is reported as 103 % of control.
For `COc1cc(/C=C2\SC(=S)N(C3CC3)C2=O)ccc1O`, the T/C [1] was 97 % of control, the T/C (dose: 100.0 mg/kg/injection, schedule: Q01DX009 (ip), vehicle: saline) was 107 % of control and the T/C (dose: 200.0 mg/kg/injection, schedule: Q01DX009 (ip), vehicle: saline) was 104 % of control and 91 % of control.
With `CC(C)N=C(c1ccccc1)N1CCCCC1` the T/C [2] was 98 % of control and the T/C [3] was 100 % of control.
For `NC(=S)N/N=C\c1nccc2c(N)cccc12`, the T/C (dose: 3.13 mg/kg/injection, schedule: Q01DX009 (ip), vehicle: saline) was 161 % of control, the T/C (dose: 6.25 mg/kg/injection, schedule: Q01DX009 (ip), vehicle: saline with Tween-80) was 153 % of control and the T/C (dose: 6.25 mg/kg/injection, schedule: Q01DX009 (ip), vehicle: saline) was 161 % of control. For the same compound, the T/C (dose: 12.5 mg/kg/injection, schedule: Q01DX009 (ip), vehicle: saline with Tween-80) was 162 % of control, the T/C [2] was 150 % of control and 166 % of control and the T/C (dose: 18.8 mg/kg/injection, schedule: Q04DX003 (ip), vehicle: saline) was 155 % of control. The T/C [3] was 167 % of control, the T/C [4] was 152 % of control and 155 % of control and the T/C [1] was 168 % of control and 181 % of control. For the same compound, the T/C (dose: 75.0 mg/kg/injection, schedule: Q01DX009 (ip), vehicle: saline with Tween-80) was 150 % of control, the T/C (dose: 75.0 mg/kg/injection, schedule: Q04DX003 (ip), vehicle: saline) was 155 % of control and the T/C (dose: 150.0 mg/kg/injection, schedule: Q04DX003 (ip), vehicle: saline) was 172 % of control.
`CC1OC(OCC2OC(Oc3c(-c4ccc(O)cc4)oc4cc(OC5OC(C)C(O)C(O)C5O)cc(O)c4c3=O)C(O)C(O)C2O)C(O)C(O)C1O` (stereo not given) was tested, and the T/C [5] was 95 % of control, the T/C (dose: 100.0 mg/kg/injection, schedule: Q04DX003 (ip), vehicle: saline sonified) was 90 % of control and the T/C (dose: 200.0 mg/kg/injection, schedule: Q01DX009 (ip), vehicle: saline with Tween-80) was 95 % of control. The T/C (dose: 200.0 mg/kg/injection, schedule: Q04DX003 (ip), vehicle: saline sonified) was 90 % of control, the T/C (dose: 400.0 mg/kg/injection, schedule: Q01DX009 (ip), vehicle: saline with Tween-80) was 95 % of control and the T/C (dose: 400.0 mg/kg/injection, schedule: Q04DX003 (ip), vehicle: saline sonified) was 90 % of control.
For `COc1ccc(/C=C/C(=O)C(CN(C)C)CN(C)C)cc1OC`, the T/C (dose: 0.78 mg/kg/injection, schedule: Q01DX005 (ip), vehicle: Klucel (hydroxypropylcellulose) (HPC)) was 106 % of control, the T/C (dose: 1.56 mg/kg/injection, schedule: Q01DX005 (ip), vehicle: Klucel (hydroxypropylcellulose) (HPC)) was 102 % of control and the T/C (dose: 3.12 mg/kg/injection, schedule: Q01DX005 (ip), vehicle: Klucel (hydroxypropylcellulose) (HPC)) was 104 % of control.
With `CC(C)(O)/C=C/C(=O)[C@](C)(O)[C@H]1[C@H](O)C[C@@]2(C)[C@@H]3CC=C4[C@@H](C[C@H](O)C(=O)C4(C)C)[C@]3(C)C(=O)C[C@]12C` the T/C (dose: 0.25 mg/kg/injection, schedule: Q01DX009 (ip), vehicle: saline + Tween-80 + alcohol) was 118 % of control, the T/C (dose: 0.25 mg/kg/injection, schedule: Q01DX009 (ip), vehicle: saline with Tween-80) was 105 % of control and the T/C (dose: 0.25 mg/kg/injection, schedule: Q01DX009 (ip), vehicle: saline) was 113 % of control. The T/C (dose: 0.5 mg/kg/injection, schedule: Q01DX009 (ip), vehicle: saline + Tween-80 + alcohol) was 121 % of control, the T/C (dose: 0.5 mg/kg/injection, schedule: Q01DX009 (ip), vehicle: saline with Tween-80) was 108 % of control and the T/C (dose: 0.5 mg/kg/injection, schedule: Q01DX009 (ip), vehicle: saline) was 111 % of control. For the same compound, the T/C (dose: 0.5 mg/kg/injection, schedule: Q01DX010 (ip), vehicle: saline) was 95 % of control, the T/C (dose: 0.96 mg/kg/injection, schedule: Q01DX009 (ip), vehicle: saline + Tween-80 + alcohol) was 152 % of control and the T/C (dose: 0.96 mg/kg/injection, schedule: Q01DX009 (ip), vehicle: saline with Tween-80) was 105 % of control. The T/C (dose: 1.0 mg/kg/injection, schedule: Q01DX009 (ip), vehicle: saline + Tween-80 + alcohol) was 118 % of control, the T/C (dose: 1.0 mg/kg/injection, schedule: Q01DX009 (ip), vehicle: saline with Tween-80) was 119 % of control and the T/C (dose: 1.0 mg/kg/injection, schedule: Q01DX009 (ip), vehicle: saline) was 111 % of control.
With `O=C(CC(=O)C(F)(F)F)c1cc2ccccc2s1` the T/C (dose: 25.0 mg/kg/injection, schedule: Q01DX009 (ip), vehicle: saline with Tween-80) was 113 % of control, the T/C [4] was 96 % of control and the T/C [5] was 115 % of control.
In the case of `Cn1cc(C#N)c(=O)[nH]c1=O`, the T/C (dose: 50.0 mg/kg/injection, schedule: Q01DX005 (ip), vehicle: Klucel (hydroxypropylcellulose) (HPC)) is reported as 101 % of control, the T/C (dose: 100.0 mg/kg/injection, schedule: Q01DX005 (ip), vehicle: Klucel (hydroxypropylcellulose) (HPC)) is reported as 98 % of control and the T/C (dose: 200.0 mg/kg/injection, schedule: Q01DX005 (ip), vehicle: Klucel (hydroxypropylcellulose) (HPC)) is reported as 104 % of control.
With `C1CC[N-]CC1.C1CC[N-]CC1.N#C[S-].N#C[S-].[Cu]` the T/C (dose: 1.25 mg/kg/injection, schedule: Q04DX003 (ip), vehicle: saline with Tween-80) was 100 % of control, the T/C (dose: 2.5 mg/kg/injection, schedule: Q04DX003 (ip), vehicle: saline with Tween-80) was 100 % of control and the T/C (dose: 5.0 mg/kg/injection, schedule: Q04DX003 (ip), vehicle: saline with Tween-80) was 90 % of control. The T/C (dose: 10.0 mg/kg/injection, schedule: Q04DX003 (ip), vehicle: saline with Tween-80) was 90 % of control.
